Drawing on ChEMBL document CHEMBL5442175, “EUbOPEN Chemogenomics Library - PDSP Secondary Binding” (2024), this text covers Ki for 8 molecules.

Each structure is given as a SMILES string. Bounds are passed on as bounds.

The target in assay [1] is T1, Alpha-2B adrenergic receptor (Homo sapiens, UniProt P18089).
T1 sequence (P18089 whole entry): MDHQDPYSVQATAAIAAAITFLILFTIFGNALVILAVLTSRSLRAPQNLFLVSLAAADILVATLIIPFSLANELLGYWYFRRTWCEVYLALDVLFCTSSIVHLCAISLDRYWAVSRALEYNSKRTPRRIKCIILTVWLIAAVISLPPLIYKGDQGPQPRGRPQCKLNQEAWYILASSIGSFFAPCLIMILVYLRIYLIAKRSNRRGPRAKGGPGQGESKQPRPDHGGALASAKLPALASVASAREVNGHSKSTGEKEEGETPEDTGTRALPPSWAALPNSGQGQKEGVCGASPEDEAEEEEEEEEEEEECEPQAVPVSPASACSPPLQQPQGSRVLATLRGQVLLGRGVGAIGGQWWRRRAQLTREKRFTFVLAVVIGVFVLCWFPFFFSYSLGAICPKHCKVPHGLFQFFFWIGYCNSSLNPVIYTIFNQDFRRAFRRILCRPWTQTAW
Nature of the assay: PDSP Secondary Binding target: ADRA2B - Compounds are tested at 10 uM concentration, plate are incubated at room temperature in the dark for 90 minutes. Reaction are stopped by vacuum filtration onto 0.3% polyethyleneimine soaked filter mats using Filtermate harvester. Scintillation cocktail is then melted onto microwave-dried filters on a hot plate and the radio activity is counted in Microbia counter.

Assay [2] has as its target T2, Alpha-2C adrenergic receptor (Homo sapiens, UniProt P18825).
T2 sequence (P18825 whole entry): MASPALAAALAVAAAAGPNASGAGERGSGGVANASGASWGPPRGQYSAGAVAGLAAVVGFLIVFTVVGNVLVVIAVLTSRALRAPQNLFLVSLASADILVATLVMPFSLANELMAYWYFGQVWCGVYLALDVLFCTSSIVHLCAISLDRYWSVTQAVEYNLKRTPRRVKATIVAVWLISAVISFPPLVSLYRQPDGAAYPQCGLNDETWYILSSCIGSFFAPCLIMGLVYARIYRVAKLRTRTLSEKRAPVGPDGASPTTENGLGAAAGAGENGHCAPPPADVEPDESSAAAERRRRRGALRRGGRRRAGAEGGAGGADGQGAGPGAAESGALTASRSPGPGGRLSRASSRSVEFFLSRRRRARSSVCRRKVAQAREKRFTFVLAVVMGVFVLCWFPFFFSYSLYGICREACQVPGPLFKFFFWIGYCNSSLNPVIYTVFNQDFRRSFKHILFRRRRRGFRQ
Put plainly: PDSP Secondary Binding target: ADRA2C - Compounds are tested at 10 uM concentration, plate are incubated at room temperature in the dark for 90 minutes. Reaction are stopped by vacuum filtration onto 0.3% polyethyleneimine soaked filter mats using Filtermate harvester. Scintillation cocktail is then melted onto microwave-dried filters on a hot plate and the radio activity is counted in Microbia counter.

The target in the next assay is Histamine H1 receptor (Homo sapiens, UniProt P35367). Put plainly: PDSP Secondary Binding target: HRH1 - Compounds are tested at 10 uM concentration, plate are incubated at room temperature in the dark for 90 minutes. Reaction are stopped by vacuum filtration onto 0.3% polyethyleneimine soaked filter mats using Filtermate harvester. Scintillation cocktail is then melted onto microwave-dried filters on a hot plate and the radio activity is counted in Microbia counter.
Chain of Histamine H1 receptor (P35367 whole entry): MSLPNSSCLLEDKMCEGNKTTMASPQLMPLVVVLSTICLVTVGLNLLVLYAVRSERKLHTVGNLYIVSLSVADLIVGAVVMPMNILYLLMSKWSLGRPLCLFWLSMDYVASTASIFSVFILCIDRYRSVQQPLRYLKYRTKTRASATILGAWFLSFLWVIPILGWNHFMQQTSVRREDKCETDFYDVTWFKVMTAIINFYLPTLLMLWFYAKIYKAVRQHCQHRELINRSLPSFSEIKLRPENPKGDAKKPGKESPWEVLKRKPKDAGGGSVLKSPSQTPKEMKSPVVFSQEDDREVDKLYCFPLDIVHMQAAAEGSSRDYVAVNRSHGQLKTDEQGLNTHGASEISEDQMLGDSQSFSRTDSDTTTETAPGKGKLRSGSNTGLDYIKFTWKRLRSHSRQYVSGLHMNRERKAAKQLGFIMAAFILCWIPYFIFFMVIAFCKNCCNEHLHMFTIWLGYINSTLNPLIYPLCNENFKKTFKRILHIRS

For assay [3], the target named is Sigma non-opioid intracellular receptor 1 (Homo sapiens, UniProt Q99720). Put plainly: PDSP Secondary Binding target: SIGMAR1 - Compounds are tested at 10 uM concentration, plate are incubated at room temperature in the dark for 90 minutes. Reaction are stopped by vacuum filtration onto 0.3% polyethyleneimine soaked filter mats using Filtermate harvester. Scintillation cocktail is then melted onto microwave-dried filters on a hot plate and the radio activity is counted in Microbia counter.
Chain of Sigma non-opioid intracellular receptor 1 (Q99720 whole entry): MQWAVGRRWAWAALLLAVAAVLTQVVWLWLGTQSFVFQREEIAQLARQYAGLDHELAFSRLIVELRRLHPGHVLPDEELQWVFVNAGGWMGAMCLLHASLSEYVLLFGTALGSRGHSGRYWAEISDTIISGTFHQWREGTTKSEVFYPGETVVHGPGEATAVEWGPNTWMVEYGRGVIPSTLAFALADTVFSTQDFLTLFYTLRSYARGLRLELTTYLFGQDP

The target in assay [4] is 5-hydroxytryptamine receptor 2A (Homo sapiens, UniProt P28223). Nature of the assay: PDSP Secondary Binding target: HTR2A - Compounds are tested at 10 uM concentration, plate are incubated at room temperature in the dark for 90 minutes. Reaction are stopped by vacuum filtration onto 0.3% polyethyleneimine soaked filter mats using Filtermate harvester. Scintillation cocktail is then melted onto microwave-dried filters on a hot plate and the radio activity is counted in Microbia counter.
Chain of 5-hydroxytryptamine receptor 2A (P28223 whole entry): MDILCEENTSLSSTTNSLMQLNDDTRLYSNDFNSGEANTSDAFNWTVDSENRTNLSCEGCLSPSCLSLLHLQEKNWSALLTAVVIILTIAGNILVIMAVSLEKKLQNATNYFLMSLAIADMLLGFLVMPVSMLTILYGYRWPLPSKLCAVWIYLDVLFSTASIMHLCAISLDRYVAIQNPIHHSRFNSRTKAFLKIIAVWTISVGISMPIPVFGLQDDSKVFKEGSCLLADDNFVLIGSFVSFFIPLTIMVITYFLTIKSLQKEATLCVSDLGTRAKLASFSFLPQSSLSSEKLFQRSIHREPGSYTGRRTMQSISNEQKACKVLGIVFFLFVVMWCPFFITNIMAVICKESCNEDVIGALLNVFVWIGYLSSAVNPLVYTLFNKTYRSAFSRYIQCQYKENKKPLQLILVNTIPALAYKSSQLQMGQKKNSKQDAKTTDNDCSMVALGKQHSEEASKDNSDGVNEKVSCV

In assay [5] the target is T3, 5-hydroxytryptamine receptor 2C (Homo sapiens, UniProt P28335).
T3 sequence (P28335 whole entry): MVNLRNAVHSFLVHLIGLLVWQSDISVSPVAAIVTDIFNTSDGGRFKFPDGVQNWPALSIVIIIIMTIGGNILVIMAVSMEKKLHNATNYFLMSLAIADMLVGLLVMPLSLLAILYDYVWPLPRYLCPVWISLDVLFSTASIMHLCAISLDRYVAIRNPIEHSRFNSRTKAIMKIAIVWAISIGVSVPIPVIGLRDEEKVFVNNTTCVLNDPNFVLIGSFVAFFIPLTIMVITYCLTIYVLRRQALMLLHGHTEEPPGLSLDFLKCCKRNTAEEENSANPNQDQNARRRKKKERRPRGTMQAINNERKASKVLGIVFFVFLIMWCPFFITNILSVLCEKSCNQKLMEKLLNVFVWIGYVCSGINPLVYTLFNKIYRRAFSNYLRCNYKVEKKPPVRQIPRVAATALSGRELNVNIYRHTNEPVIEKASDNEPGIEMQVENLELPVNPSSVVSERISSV
Put plainly: PDSP Secondary Binding target: HTR2C - Compounds are tested at 10 uM concentration, plate are incubated at room temperature in the dark for 90 minutes. Reaction are stopped by vacuum filtration onto 0.3% polyethyleneimine soaked filter mats using Filtermate harvester. Scintillation cocktail is then melted onto microwave-dried filters on a hot plate and the radio activity is counted in Microbia counter.

Assay [6] concerns the target Sigma intracellular receptor 2 (Homo sapiens, UniProt Q5BJF2). Put plainly: PDSP Secondary Binding target: TMEM97 - Compounds are tested at 10 uM concentration, plate are incubated at room temperature in the dark for 90 minutes. Reaction are stopped by vacuum filtration onto 0.3% polyethyleneimine soaked filter mats using Filtermate harvester. Scintillation cocktail is then melted onto microwave-dried filters on a hot plate and the radio activity is counted in Microbia counter.

A further assay deals with Mu-type opioid receptor (Homo sapiens, UniProt P35372). Put plainly: PDSP Secondary Binding target: OPRM1 - Compounds are tested at 10 uM concentration, plate are incubated at room temperature in the dark for 90 minutes. Reaction are stopped by vacuum filtration onto 0.3% polyethyleneimine soaked filter mats using Filtermate harvester. Scintillation cocktail is then melted onto microwave-dried filters on a hot plate and the radio activity is counted in Microbia counter.
Chain of Mu-type opioid receptor (P35372 whole entry): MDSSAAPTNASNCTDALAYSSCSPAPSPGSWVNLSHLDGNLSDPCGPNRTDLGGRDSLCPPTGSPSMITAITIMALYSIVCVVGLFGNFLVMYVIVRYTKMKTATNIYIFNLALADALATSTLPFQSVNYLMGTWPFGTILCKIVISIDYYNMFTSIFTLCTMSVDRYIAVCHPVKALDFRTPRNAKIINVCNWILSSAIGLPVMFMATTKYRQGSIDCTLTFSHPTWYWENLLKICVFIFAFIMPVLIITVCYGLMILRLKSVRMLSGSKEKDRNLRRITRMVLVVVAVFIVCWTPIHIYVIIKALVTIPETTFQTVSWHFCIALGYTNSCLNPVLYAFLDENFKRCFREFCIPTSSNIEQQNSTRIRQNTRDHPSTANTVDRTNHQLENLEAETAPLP

Assay [7] addresses 5-hydroxytryptamine receptor 7 (Homo sapiens, UniProt P34969). Put plainly: PDSP Secondary Binding target: HTR7 - Compounds are tested at 10 uM concentration, plate are incubated at room temperature in the dark for 90 minutes. Reaction are stopped by vacuum filtration onto 0.3% polyethyleneimine soaked filter mats using Filtermate harvester. Scintillation cocktail is then melted onto microwave-dried filters on a hot plate and the radio activity is counted in Microbia counter.

For the next assay, the target named is D(3) dopamine receptor (Homo sapiens, UniProt P35462). Nature of the assay: PDSP Secondary Binding target: DRD3 - Compounds are tested at 10 uM concentration, plate are incubated at room temperature in the dark for 90 minutes. Reaction are stopped by vacuum filtration onto 0.3% polyethyleneimine soaked filter mats using Filtermate harvester. Scintillation cocktail is then melted onto microwave-dried filters on a hot plate and the radio activity is counted in Microbia counter.
Chain of D(3) dopamine receptor (P35462 whole entry): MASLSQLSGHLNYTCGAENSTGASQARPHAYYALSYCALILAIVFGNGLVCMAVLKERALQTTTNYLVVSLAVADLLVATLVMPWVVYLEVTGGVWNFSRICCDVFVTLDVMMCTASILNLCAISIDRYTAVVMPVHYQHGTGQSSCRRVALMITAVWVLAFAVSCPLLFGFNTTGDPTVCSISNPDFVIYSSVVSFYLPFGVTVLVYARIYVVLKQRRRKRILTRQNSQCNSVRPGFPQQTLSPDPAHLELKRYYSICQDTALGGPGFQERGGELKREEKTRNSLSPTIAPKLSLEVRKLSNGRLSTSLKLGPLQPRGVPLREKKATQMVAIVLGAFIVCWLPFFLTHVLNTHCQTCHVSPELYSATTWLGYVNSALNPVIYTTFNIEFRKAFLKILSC

Assay [8] concerns the target Kappa-type opioid receptor (Homo sapiens, UniProt P41145). Nature of the assay: PDSP Secondary Binding target: OPRK1 - Compounds are tested at 10 uM concentration, plate are incubated at room temperature in the dark for 90 minutes. Reaction are stopped by vacuum filtration onto 0.3% polyethyleneimine soaked filter mats using Filtermate harvester. Scintillation cocktail is then melted onto microwave-dried filters on a hot plate and the radio activity is counted in Microbia counter.

For assay [9], the target named is 5-hydroxytryptamine receptor 5A (Homo sapiens, UniProt P47898). Nature of the assay: PDSP Secondary Binding target: HTR5A - Compounds are tested at 10 uM concentration, plate are incubated at room temperature in the dark for 90 minutes. Reaction are stopped by vacuum filtration onto 0.3% polyethyleneimine soaked filter mats using Filtermate harvester. Scintillation cocktail is then melted onto microwave-dried filters on a hot plate and the radio activity is counted in Microbia counter.
Chain of 5-hydroxytryptamine receptor 5A (P47898 whole entry): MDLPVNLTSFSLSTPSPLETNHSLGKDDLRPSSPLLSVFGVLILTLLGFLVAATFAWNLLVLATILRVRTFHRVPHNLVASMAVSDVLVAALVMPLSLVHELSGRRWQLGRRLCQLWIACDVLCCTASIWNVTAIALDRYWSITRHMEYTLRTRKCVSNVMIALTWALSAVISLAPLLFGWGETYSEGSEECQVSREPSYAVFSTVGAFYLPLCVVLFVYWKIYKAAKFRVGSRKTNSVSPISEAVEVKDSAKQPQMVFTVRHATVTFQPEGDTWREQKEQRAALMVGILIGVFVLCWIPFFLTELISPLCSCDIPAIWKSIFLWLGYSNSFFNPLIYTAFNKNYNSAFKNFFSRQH

For another assay, the target named is Translocator protein (Homo sapiens, UniProt P30536). Put plainly: PDSP Secondary Binding target: TSPO - Compounds are tested at 10 uM concentration, plate are incubated at room temperature in the dark for 90 minutes. Reaction are stopped by vacuum filtration onto 0.3% polyethyleneimine soaked filter mats using Filtermate harvester. Scintillation cocktail is then melted onto microwave-dried filters on a hot plate and the radio activity is counted in Microbia counter.
Chain of Translocator protein (P30536 whole entry): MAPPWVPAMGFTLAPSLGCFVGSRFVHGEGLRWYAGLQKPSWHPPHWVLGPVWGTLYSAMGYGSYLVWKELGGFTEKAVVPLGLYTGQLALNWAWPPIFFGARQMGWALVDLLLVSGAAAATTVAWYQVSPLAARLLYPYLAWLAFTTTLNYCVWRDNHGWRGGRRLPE

The target in assay [10] is 5-hydroxytryptamine receptor 2B (Homo sapiens, UniProt P41595). Nature of the assay: PDSP Secondary Binding target: HTR2B - Compounds are tested at 10 uM concentration, plate are incubated at room temperature in the dark for 90 minutes. Reaction are stopped by vacuum filtration onto 0.3% polyethyleneimine soaked filter mats using Filtermate harvester. Scintillation cocktail is then melted onto microwave-dried filters on a hot plate and the radio activity is counted in Microbia counter.
Chain of 5-hydroxytryptamine receptor 2B (P41595 whole entry): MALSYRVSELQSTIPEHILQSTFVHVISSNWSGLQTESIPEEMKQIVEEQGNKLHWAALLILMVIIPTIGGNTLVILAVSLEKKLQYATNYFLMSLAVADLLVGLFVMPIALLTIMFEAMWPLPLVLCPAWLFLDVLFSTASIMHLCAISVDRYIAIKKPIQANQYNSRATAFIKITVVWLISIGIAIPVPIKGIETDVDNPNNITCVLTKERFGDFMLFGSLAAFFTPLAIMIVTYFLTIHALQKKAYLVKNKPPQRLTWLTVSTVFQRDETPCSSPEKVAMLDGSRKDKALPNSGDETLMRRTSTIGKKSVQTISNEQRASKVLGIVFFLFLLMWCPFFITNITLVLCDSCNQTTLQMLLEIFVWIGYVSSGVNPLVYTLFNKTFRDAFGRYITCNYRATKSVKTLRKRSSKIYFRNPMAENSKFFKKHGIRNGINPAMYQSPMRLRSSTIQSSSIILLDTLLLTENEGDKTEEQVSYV

For assay [11], the target named is T4, Muscarinic acetylcholine receptor M5 (Homo sapiens, UniProt P08912).
T4 sequence (P08912 whole entry): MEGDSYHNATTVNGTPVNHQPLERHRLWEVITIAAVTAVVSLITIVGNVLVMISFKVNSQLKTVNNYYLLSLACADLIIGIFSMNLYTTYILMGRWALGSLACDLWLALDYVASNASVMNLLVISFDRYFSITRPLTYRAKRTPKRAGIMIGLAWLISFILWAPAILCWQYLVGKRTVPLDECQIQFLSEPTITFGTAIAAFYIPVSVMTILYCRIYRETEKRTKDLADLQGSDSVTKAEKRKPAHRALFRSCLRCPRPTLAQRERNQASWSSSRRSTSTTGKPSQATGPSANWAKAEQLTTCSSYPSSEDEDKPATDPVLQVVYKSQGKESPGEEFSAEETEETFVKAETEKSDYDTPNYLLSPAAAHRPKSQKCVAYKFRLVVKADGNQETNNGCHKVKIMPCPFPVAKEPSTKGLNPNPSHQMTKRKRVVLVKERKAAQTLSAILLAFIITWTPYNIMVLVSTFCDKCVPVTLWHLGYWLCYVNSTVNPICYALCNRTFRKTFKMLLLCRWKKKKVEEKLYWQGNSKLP
Nature of the assay: PDSP Secondary Binding target: CHRM5 - Compounds are tested at 10 uM concentration, plate are incubated at room temperature in the dark for 90 minutes. Reaction are stopped by vacuum filtration onto 0.3% polyethyleneimine soaked filter mats using Filtermate harvester. Scintillation cocktail is then melted onto microwave-dried filters on a hot plate and the radio activity is counted in Microbia counter.

In assay [12] the target is T5, Alpha-1D adrenergic receptor (Homo sapiens, UniProt P25100).
T5 sequence (P25100 whole entry): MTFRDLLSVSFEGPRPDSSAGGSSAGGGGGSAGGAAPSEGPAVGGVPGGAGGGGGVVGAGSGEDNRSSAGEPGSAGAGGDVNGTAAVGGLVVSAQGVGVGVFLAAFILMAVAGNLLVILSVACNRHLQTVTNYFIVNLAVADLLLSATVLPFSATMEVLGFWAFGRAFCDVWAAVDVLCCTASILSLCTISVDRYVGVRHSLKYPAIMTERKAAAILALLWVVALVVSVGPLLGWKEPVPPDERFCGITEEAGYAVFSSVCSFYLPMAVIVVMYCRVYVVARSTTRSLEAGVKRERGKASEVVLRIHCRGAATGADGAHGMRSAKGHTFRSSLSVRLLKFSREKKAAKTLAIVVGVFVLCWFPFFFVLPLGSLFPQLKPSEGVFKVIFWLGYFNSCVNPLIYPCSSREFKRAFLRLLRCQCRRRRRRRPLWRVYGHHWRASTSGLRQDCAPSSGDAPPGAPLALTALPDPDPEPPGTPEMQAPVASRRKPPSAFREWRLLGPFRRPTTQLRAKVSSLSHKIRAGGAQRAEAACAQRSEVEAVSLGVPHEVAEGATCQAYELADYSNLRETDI
Nature of the assay: PDSP Secondary Binding target: ADRA1D - Compounds are tested at 10 uM concentration, plate are incubated at room temperature in the dark for 90 minutes. Reaction are stopped by vacuum filtration onto 0.3% polyethyleneimine soaked filter mats using Filtermate harvester. Scintillation cocktail is then melted onto microwave-dried filters on a hot plate and the radio activity is counted in Microbia counter.

Chain of 5-hydroxytryptamine receptor 7 (P34969 whole entry): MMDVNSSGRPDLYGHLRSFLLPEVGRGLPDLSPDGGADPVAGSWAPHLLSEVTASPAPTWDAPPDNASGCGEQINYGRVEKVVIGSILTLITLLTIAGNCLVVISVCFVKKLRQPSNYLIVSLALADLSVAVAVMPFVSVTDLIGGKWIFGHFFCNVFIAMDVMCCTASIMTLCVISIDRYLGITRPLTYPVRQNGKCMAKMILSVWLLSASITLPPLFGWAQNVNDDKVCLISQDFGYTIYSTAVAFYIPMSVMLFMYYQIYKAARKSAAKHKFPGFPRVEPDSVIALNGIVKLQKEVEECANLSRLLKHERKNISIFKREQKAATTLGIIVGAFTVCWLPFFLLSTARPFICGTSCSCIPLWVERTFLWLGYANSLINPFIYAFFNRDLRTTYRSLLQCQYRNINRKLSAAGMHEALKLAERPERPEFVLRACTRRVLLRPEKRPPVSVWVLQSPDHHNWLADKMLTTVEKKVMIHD
Chain of Kappa-type opioid receptor (P41145 whole entry): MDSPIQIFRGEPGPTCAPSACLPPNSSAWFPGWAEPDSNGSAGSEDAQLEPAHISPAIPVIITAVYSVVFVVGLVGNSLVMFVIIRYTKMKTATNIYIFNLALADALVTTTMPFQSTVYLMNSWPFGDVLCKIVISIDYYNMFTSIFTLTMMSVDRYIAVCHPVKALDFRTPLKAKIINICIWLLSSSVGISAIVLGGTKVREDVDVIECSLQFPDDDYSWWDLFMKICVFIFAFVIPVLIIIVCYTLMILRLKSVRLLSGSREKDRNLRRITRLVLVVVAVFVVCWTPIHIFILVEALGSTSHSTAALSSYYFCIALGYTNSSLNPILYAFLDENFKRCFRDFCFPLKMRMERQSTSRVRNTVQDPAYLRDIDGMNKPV
Chain of Sigma intracellular receptor 2 (Q5BJF2 whole entry): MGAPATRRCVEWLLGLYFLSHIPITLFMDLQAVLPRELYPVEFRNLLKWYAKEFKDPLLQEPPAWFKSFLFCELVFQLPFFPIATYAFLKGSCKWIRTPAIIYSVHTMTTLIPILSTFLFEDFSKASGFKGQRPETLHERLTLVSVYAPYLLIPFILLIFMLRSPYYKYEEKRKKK

`NC[C@H](O)c1ccc(O)c(O)c1`: the Ki in [1] worked out at 0.235 µM; in assay [2] it was 0.386 µM.
Consider `O=C(O)C1CN(Cc2ccc(OCc3ccc(Cl)c(Cl)c3)cc2)C1`, for which the Ki was above 10 µM at Histamine H1 receptor, 0.488 µM in assay [3] and 4.61 µM in assay [4].
`Cc1ccccc1C(=O)Nc1ccc(C(=O)N2CCCC(O)c3cc(Cl)ccc32)c(C)c1` (configuration not stated) [TOLVAPTAN]: the Ki in assay [5] stood at 4.86 µM; at Histamine H1 receptor, 6.69 µM; in assay [6] it was 1.03 µM; on Mu-type opioid receptor, 0.41 µM.
In the case of `CNc1nc(NCc2ccc(NS(C)(=O)=O)cc2Cl)cc(-c2ccccn2)n1`, the Ki came out at 0.803 µM in [7]; 1.02 µM at D(3) dopamine receptor; 1.72 µM in assay [2]; 2.22 µM in [5]; 0.365 µM in assay [3]; 0.998 µM in [8]. Further, the Ki was found to be 2.12 µM in assay [4], 2.11 µM in [9], 1.66 µM at Translocator protein and 0.647 µM in assay [10].
`Cc1nnn(-c2ccc(-c3ccc(C4(C(=O)O)CC4)cc3)cc2)c1NC(=O)O[C@H](C)c1ccccc1`: the Ki was 5.55 µM at Histamine H1 receptor and above 10 µM in assay [11].
As for `CSc1ccc(C(=O)N[C@@H]2CCCC[C@@H]2NC(=O)CNC(=O)c2cc(C(F)(F)F)ccc2NC(=O)NC(C)C)cc1`, the Ki on D(3) dopamine receptor amounted to 1.19 µM; at Histamine H1 receptor, 1.61 µM.
Turning to `C/C(=N\NC(=O)[C@@H]1C(=O)NC[C@H]1c1ccccc1)c1cccc(Br)c1`, the Ki at Histamine H1 receptor was 1.98 µM; at Mu-type opioid receptor, above 10 µM; in assay [4], 3.88 µM.
The molecule `CCCn1c(=O)c2[nH]c(-c3cnn(Cc4cccc(C(F)(F)F)c4)c3)nc2n(CC)c1=O` [GS 6201] registered a Ki in [12] above 10 µM.

For orientation: Ki means the dissociation constant of the complex between target and ligand, obtained from inhibition or displacement.
